One experiment concerns NCI-H1703 cells. The experiment is described as follows: GLS Cell Proliferation Assay (NCI-H1703 cell proliferation). The class given is cell-based. An excerpt: (§1) The following assays were used to measure the effects of the compounds described herein: a) GLS Enzyme Potency Assay; b) GLS Cell Potency Assay; c) GLS Cell Proliferation Assay. During the description of the assays, generally: • i. The following abbreviations have been used: CO2=Carbon dioxide; DMEM=Dulbecco's Modified Eagle Medium; DMSO=Dimethyl sulphoxide; EDTA=Ethylenediaminetetraacetic acid; EGTA=Ethylene glycol tetraacetic acid; FCS=Foetal calf serum; h=Hour(s); NBS=Non-binding surface; SDS=Sodium dodecyl sulphate; TRIS=Tris(Hydroxymethyl)aminomethane. • ii. IC50 values were calculated using a smart fitting model in Genedata.
Assay c): GLS Cell Proliferation Assay
The ability of compounds to inhibit cell growth was measured using a 384 well plate NCI-H1703 cell proliferation assay. NCI-H1703 cells were grown in phenol red free RPMI1640, 10% FCS and 2 mM glutamine and seeded at a density of 750 cells per well in 40 μl of growth medium into clear-bottom 384 well assay plates (Corning product code 3712) and incubated for 24 h at 37° C., 5% CO2. Test compounds were prepared by dilution in 100% DMSO to give the correct dose range for 12 point concentration response and an appropriate volume (5-120 nl) dispensed directly into the assay plates containing plated cells. DMSO concentration was maintained at 0.3% by back filling with DMSO solution. Plates were incubated for 5 days at 37° C., 5% CO2, Sytox Green and Saponin added to final concentration of 2 μM and 0.25% respectively and incubated for 6 h prior to analysis. Plates were read on an Acumen eX3 (TTP Labtech) using 488 nm excitation and FITC filter set (500-530 nm) for emission. IC50 values were calculated by curve fitting to max inhibition of day zero growth using GeneData software analysis.

The next experiment addresses GLS1 (Homo sapiens (Human), UniProt O94925). As to the kind of experiment: GLS Enzyme Potency Assay (Glutamate Oxidase/AmplexRed coupled assay). The experiment is classed as biochemical.
Source text: as §1
Assay a): GLS Enzyme Potency Assay
A Glutamate Oxidase/AmplexRed coupled assay was used to measure the ability of compounds to bind to and inhibit the activity of GLS1 in vitro. […] GLS1 was diluted to 2×working concentration and incubated at room temperature to allow the tetrameric/dimeric forms to reach steady state. Assay measurements were performed in buffer comprising 50 mM TRIS pH 7.8, 100 mM NaPO4, pH 7.8, 0.001% v/v Tween20. […] DMSO concentration was maintained at 2% by back filling with DMSO solution. […] 3 μL of 100 mM glutamine diluted in assay buffer was then added and the reaction incubated at room temperature for 60 minutes. […] An artefact version of the assay where the 6His tagged GLS protein and glutamine were replaced with assay buffer was also used to rule out non specific effects on the assay components.

Experiment [1] concerns the target cellular GLS activity in PC3 cells (Homo sapiens (Human), UniProt O94925). The experiment is described as follows: GLS Cell Potency Assay (PC3 coupled assay measuring cellular glutamate depletion). The experiment is classed as cell-based. To be noted: PC3 cells, 6 h incubation, cellular glutamate depletion; read-out: Assay b) GLS cell MOA Mean IC50.
Source text: as §1
Assay b): GLS Cell Potency Assay
Compounds were assessed for their potential to inhibit cellular GLS activity by use of a PC3 coupled assay measuring cellular glutamate depletion. […] DMSO concentration was maintained at 0.3% by back filling with DMSO solution. PC3 cells were grown in phenol free DMEM, 10% dialyzed FCS, 2 mM glutamine and following dispersal by trypsinisation were plated at 5.6×10^3 cells per well in 40 μl of growth medium directly into the 384 well assay plates containing dispensed compound. After incubation for 6 h at 37° C., 5% CO2 growth media was aspirated and cells lysed in 15 μl of buffer containing 10 mM TRIS pH7.4, 100 mM NaCl, 1 mM EDTA, 1 mM EGTA, 1 mM NaF, 20 mM Na4P2O7, 2 mM Na3VO4, 1% Triton X-100, 10% glycerol, 0.1% SDS and 0.5% deoxycholate. 4 μl Of cell lysate was then transferred to a 384 well NBS plate (Corning product code 3575) and 35 μl of […] Amplex Red, 0.1375 U/mL Horseradish Peroxidase, 0.044 U/mL glutamate oxidase, 100 mM TRIS pH7.5 was added.

[2] abbreviates: Homo sapiens, 120 h; NCI-H1703 cells, 5 days incubation, Sytox Green; read-out: Assay c) Prolif Mean IC50.
[3] abbreviates: recombinant 6His tagged GLS protein (amino acids 63-669), 60 minutes reaction with glutamine.

The results in this text go back to patent publication US10040789B2, “1,3,4-thiadiazole compounds and their use in treating cancer” (AstraZeneca AB, priority 2015, dated 2018).

Where two headings read alike, the source gives them in different places.

GLS1, sequence (O94925 63-669): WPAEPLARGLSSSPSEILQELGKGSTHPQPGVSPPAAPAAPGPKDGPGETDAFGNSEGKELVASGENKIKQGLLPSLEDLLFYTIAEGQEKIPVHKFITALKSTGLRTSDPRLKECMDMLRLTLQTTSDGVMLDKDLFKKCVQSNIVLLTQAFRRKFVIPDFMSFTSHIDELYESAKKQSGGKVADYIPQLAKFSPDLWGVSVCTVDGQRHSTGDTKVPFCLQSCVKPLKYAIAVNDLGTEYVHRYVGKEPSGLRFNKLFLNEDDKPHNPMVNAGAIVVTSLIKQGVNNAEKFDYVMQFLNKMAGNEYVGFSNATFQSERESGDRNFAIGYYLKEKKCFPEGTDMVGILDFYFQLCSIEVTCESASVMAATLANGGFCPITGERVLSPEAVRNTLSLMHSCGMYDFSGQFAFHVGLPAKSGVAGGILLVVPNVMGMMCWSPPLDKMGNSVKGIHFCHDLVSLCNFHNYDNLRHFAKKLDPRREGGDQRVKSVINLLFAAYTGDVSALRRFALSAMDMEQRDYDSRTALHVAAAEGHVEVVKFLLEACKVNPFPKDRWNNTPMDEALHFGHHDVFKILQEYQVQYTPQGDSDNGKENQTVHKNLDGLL
cellular GLS activity in PC3 cells, sequence (O94925 55-669): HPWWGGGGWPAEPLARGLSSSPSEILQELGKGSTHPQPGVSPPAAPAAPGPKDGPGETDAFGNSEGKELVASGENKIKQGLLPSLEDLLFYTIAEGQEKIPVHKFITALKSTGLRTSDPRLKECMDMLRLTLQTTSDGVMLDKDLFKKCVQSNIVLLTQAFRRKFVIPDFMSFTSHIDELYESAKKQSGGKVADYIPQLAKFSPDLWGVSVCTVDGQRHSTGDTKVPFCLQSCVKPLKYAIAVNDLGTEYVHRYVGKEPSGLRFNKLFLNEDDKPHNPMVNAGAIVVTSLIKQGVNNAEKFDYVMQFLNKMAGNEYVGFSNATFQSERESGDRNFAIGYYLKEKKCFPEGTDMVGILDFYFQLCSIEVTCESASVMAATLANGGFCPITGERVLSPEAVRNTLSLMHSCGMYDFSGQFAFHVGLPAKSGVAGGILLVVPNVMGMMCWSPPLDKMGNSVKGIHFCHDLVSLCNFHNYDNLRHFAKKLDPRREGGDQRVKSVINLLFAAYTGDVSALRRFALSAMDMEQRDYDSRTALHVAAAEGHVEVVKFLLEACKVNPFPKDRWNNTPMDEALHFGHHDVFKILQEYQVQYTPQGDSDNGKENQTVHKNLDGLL

As usually defined, the IC50 is the point on the concentration scale where inhibition reaches its midpoint. As to `CN1CCc2ccccc2[C@H]1C(=O)Nc1nnc(N[C@@H]2CCN(c3cccnn3)C2)s1` [Example 8(a), (1S)-2-methyl-N-[5-[[(3R)-1-pyridazin-3-ylpyrrolidin-3-yl]amino]-1,3,4-thiadiazol-2-yl]-3,4-dihydro-1H-isoquinoline-1-carboxamide], the IC50 in the experiment with NCI-H1703 cells (setting [2]) turned out to be 8.81 nM; on GLS1 (setting [3]), 53 nM; in experiment [1] it was 1.91 nM.

As to `Cc1ccccc1[C@@H](C(=O)Nc1nnc(N[C@@H]2CCN(c3cccnn3)C2)s1)N(C)C` [Example 17, (2S)-2-(dimethylamino)-2-(o-tolyl)-N-[5-[[(3R)-1-pyridazin-3-ylpyrrolidin-3-yl]amino]-1,3,4-thiadiazol-2-yl]acetamide], the IC50 was determined as 163 nM in the experiment with NCI-H1703 cells (setting [2]), 187 nM on GLS1 (setting [3]) and 10.7 nM in experiment [1].

Regarding `Cc1ccc([C@@H](C(=O)Nc2nnc(N[C@@H]3CCN(c4cccnn4)C3)s2)N(C)C)cc1` [Example 9, (2S)-2-(dimethylamino)-2-(4-methylphenyl)-N-[5-[[(3R)-1-pyridazin-3-ylpyrrolidin-3-yl]amino]-1,3,4-thiadiazol-2-yl]acetamide], the IC50 in the experiment on NCI-H1703 cells (setting [2]) came to 44.8 nM; at GLS1 (setting [3]), 132 nM; in experiment [1], 2.81 nM.

For the molecule `CN(C)[C@H](C(=O)Nc1nnc(N[C@@H]2CCN(c3cccnn3)C2)s1)c1cccc(OC(F)(F)F)c1` [Example 18, (2S)-2-(dimethylamino)-N-[5-[[(3R)-1-pyridazin-3-ylpyrrolidin-3-yl]amino]-1,3,4-thiadiazol-2-yl]-2-[3-(trifluoromethoxy)phenyl]acetamide], the IC50 was determined as 3.51 nM in the experiment on NCI-H1703 cells (NCI-H1703 cells, 5 days incubation, Sytox Green; read-out: Assay c) Prolif Mean IC50); 182 nM at GLS1 (setting [3]); 1.1 nM in experiment [1].

On to `CN(C)[C@@H](C(=O)Nc1nnc(N[C@@H]2CCN(c3cccnn3)C2)s1)c1cccc(OC(F)F)c1` [Example 3(b), (2R)-2-[3-(difluoromethoxy)phenyl]-2-(dimethylamino)-N-[5-[[(3R)-1-pyridazin-3-ylpyrrolidin-3-yl]amino]-1,3,4-thiadiazol-2-yl]acetamide], for which the IC50 with NCI-H1703 cells (setting [2]) was 8.25 nM; on GLS1, 52.4 nM; in experiment [1] it was 0.295 nM.

Regarding `CN(C)[C@H](C(=O)Nc1nnc(N[C@@H]2CCN(c3cccnn3)C2)s1)c1cccc(C#N)c1` [Example 13, (2S)-2-(3-cyanophenyl)-2-(dimethylamino)-N-[5-[[(3R)-1-pyridazin-3-ylpyrrolidin-3-yl]amino]-1,3,4-thiadiazol-2-yl]acetamide], the figures for the IC50 (with NCI-H1703 cells (setting [2]); against GLS1; in experiment [1]) were 76.8 nM, 226 nM and 11.3 nM, respectively.

Consider `CN(C)[C@H](C(=O)Nc1nnc(N[C@@H]2CCN(c3cccnn3)C2)s1)c1cccc(OC(F)F)c1` [Example 3(a), (2S)-2-[3-(difluoromethoxy)phenyl]-2-(dimethylamino)-N-[5-[[(3R)-1-pyridazin-3-ylpyrrolidin-3-yl]amino]-1,3,4-thiadiazol-2-yl]acetamide], for which the IC50 in the experiment on NCI-H1703 cells (setting [2]) was found to be 12.7 nM; at GLS1 (setting [3]), 261 nM; in experiment [1], 11.2 nM.

On to `CN(C)[C@@H](C(=O)Nc1nnc(N[C@@H]2CCN(c3cccnn3)C2)s1)c1cccc(OC(F)(F)F)c1` [Example 14, (2R)-2-(dimethylamino)-N-[5-[[(3R)-1-pyridazin-3-ylpyrrolidin-3-yl]amino]-1,3,4-thiadiazol-2-yl]-2-[3-(trifluoromethoxy)phenyl]acetamide], for which the IC50 turned out to be 5.23 nM in the experiment with NCI-H1703 cells (Homo sapiens, NCI-H1703, 120 h, NCI-H1703 cells, 5 days incubation, Sytox Green; read-out: Assay c) Prolif Mean IC50); 2260 nM at GLS1 (setting [3]); 10.2 nM in experiment [1].

`CN1CCc2ccccc2[C@@H]1C(=O)Nc1nnc(N[C@@H]2CCN(c3cccnn3)C2)s1` [Example 8(b), (1R)-2-methyl-N-[5-[[(3R)-1-pyridazin-3-ylpyrrolidin-3-yl]amino]-1,3,4-thiadiazol-2-yl]-3,4-dihydro-1H-isoquinoline-1-carboxamide]: the half-maximal inhibitory concentration (IC50) in the experiment on NCI-H1703 cells (setting [2]) was 85.1 nM; on GLS1, 194 nM; in experiment [1] it was 20.9 nM.
